Key:
r(CUG)12-MBNL1 complex = assay: Inhibition of the r(CUG)12-MBNL1 complex measured by TR-FRET; format: biochemical; settings: 80 nM RNA, 60 nM MBNL1-His6
[1] = test system: MBNL1 exon 5 inclusion in DM1 myotubes; assay: Myotube splicing rescue assay (MBNL1 exon 5 inclusion); format: cell-based, human; settings: 48-hour incubation

Structure (SMILES) | IC50 (r(CUG)12-MBNL1 complex; Table M) [µM] | MBNL1 % splicing rescue at 5 μM [1] [%] | MBNL1 % splicing rescue at 10 μM [1] [%] | IC50 (r(CUG)12-MBNL1 complex; Table L) [µM] | MBNL1 % splicing rescue at 1 μM [1] [%]
CC(=O)NCCCn1cc(CCCCN(C)CCNC(=O)c2ccc(-c3nc4cc(-c5ccc6[nH]c(-c7ccc(C(=O)NCCN(C)C)cc7)nc6c5)ccc4[nH]3)cc2)nn1 [Compound 402] | 10.9 | −33.8 |  |  | 
CN(C)CCCOc1ccc2nc(-c3ccc(-c4nc5ccc(C(=O)OCCN(C)C)cc5[nH]4)cc3)[nH]c2c1 [Compound 266] | 10.7 |  | −13.1 |  | 
CN(C)CCCOc1ccc2nc(-c3ccc(-c4nc5ccc(OCCCN(C)C)cc5[nH]4)c4c3OCO4)[nH]c2c1 [Compound 305] | 7.6 |  | 58.8 |  | 
CN1CCN(CCNC(=O)c2ccc3nc(-c4ccc(-c5nc6ccc(C(=O)NCCN7CCCCC7)cc6[nH]5)cc4)[nH]c3c2)CC1 [Compound 44, N-(2-(4-methylpiperazin-1-yl)ethyl)-2-(4-(6-((2-(piperidin-1-yl)ethyl)carbamoyl)-1H-benzo[d]imidazol-2-yl)phenyl)-1H-benzo[d]imidazole-6-carboxamide] |  |  | 16.4 | 11.9 | 6.1
COc1cc(-c2nc3ccc(OCCCN(C)C)cc3[nH]2)ccc1-c1nc2ccc(OCCCN(C)C)cc2[nH]1 [Compound 293] | 18.2 |  | 71.0 |  | 
C#CCCCCN(C)CCNC(=O)c1ccc(-c2nc3cc(-c4ccc5[nH]c(-c6ccc(OCCCN(C)C)cc6)nc5c4)ccc3[nH]2)cc1 [Compound 403] | 5.6 |  | 90.5 |  | 
CN1CCC(COc2ccc3nc(-c4ccc(-c5nc6ccc(OCC7CCN(C)CC7)cc6[nH]5)c(F)c4)[nH]c3c2)CC1 [Compound 315] | 6.1 |  | 88.4 |  | 
CN(C)CCCOc1ccc2nc(-c3ccc(-c4nc5ccc(OCCCN)cc5[nH]4)cc3)[nH]c2c1 [Compound 205, 3-((2-(4-(6-(3-aminopropoxy)-1H-benzo[d]imidazol-2-yl)phenyl)-1H-benzo[d]imidazol-6-yl)oxy)-N,N-dimethylpropan-1-amine] | 27.3 |  | −48.4 |  | 
CCN(CC)CCNC(=O)c1ccc(-c2nc3cc(-c4ccc5[nH]c(-c6ccc(C(=O)NCCN(CC)CC)cc6)nc5c4)ccc3[nH]2)cc1 [Compound 112] |  |  | 66.5 | 5 | 
C[C@@H](NC(=O)CNCCCn1cc(CCCCN(C)CCNC(=O)c2ccc(-c3nc4cc(-c5ccc6[nH]c(-c7ccc(C(=O)NCCN(C)C)cc7)nc6c5)ccc4[nH]3)cc2)nn1)C(=O)N[C@H](C)C(=O)N[C@H](C)C(=O)N[C@H](C)C(=O)N(CCCn1cc(CCCCN(C)CCNC(=O)c2ccc(-c3nc4cc(-c5ccc6[nH]c(-c7ccc(C(=O)NCCN(C)C)cc7)nc6c5)ccc4[nH]3)cc2)nn1)CC(N)=O [Compound 460] | 1.3 | −21.0 |  |  | 
CN(C)CCCOc1ccc(-c2nc3cc(-c4ccc5[nH]c(-c6ccc(C(=O)NCCCn7cc(COCCOCCN(C)C(=O)c8ccc(-c9nc%10cc(-c%11ccc%12[nH]c(-c%13ccc(C(=O)NCCN(C)C)cc%13)nc%12c%11)ccc%10[nH]9)cc8)nn7)cc6)nc5c4)ccc3[nH]2)cc1 [Compound 458] | 20.5 | −14.7 |  |  | 
CN(C)CCCS(=O)(=O)c1ccc2[nH]c(-c3ccc(-c4nc5cc(S(=O)(=O)CCCN(C)C)ccc5[nH]4)cc3)nc2c1 [Compound 202, 3,3′-(2,2′-(1,4-phenylene)bis(1H-benzo[d]imidazole-6,6′-sulfonyl))bis(N,N-dimethylpropan-1-amine)] | 42 |  | 34.0 |  | 
CN1CC[C@@H](NC(=O)c2ccc(-c3nc4cc(-c5ccc6[nH]c(-c7ccc(C(=O)N[C@@H]8CCN(C)C8)cc7)nc6c5)ccc4[nH]3)cc2)C1 [Compound 339] | 5.96 |  | 1.8 |  | −3.2
CN(C)CCCOc1ccc2nc(-c3ccc(-c4nc5ccc(OCCCN(C)C)cc5[nH]4)c(C#N)c3)[nH]c2c1 [Compound 268, 2,5-bis(6-(3-(dimethylamino)propoxy)-1H-benzo[d]imidazol-2-yl)benzonitrile] | 9.6 |  | 73.6 |  | 
O=C(NCCN1CCCC1)c1ccc(-c2nc3cc(-c4ccc5[nH]c(-c6ccc(C(=O)NCCN7CCCC7)cc6)nc5c4)ccc3[nH]2)cc1 [Compound 115] |  |  | 57.5 | 7.1 | 
CN1CCN(c2ccc(-c3nc4cc(-c5ccc6[nH]c(-c7ccc(N8CCN(C)CC8)cc7)nc6c5)ccc4[nH]3)cc2)CC1 [Compound 334] | 14.2 |  |  |  | 73.1
CN(C)CCNC(=O)c1ccc2nc(-c3ccc(-c4nc5ccc(NC6=NCCN6C6=NCCN6)cc5[nH]4)cc3)[nH]c2c1 [Compound 148] |  |  | 1.7 | 7.4 | 

Structure (SMILES) | IC50 (r(CUG)12-MBNL1 complex; Table M) [µM] | MBNL1 % splicing rescue at 5 μM [1] [%] | MBNL1 % splicing rescue at 10 μM [1] [%] | IC50 (r(CUG)12-MBNL1 complex; Table L) [µM] | MBNL1 % splicing rescue at 1 μM [1] [%]
CN(C)CCCOc1ccc2nc(-c3ccc(-c4nc5ccc(OCCCN(C)C)cc5[nH]4)c(OCCO)c3)[nH]c2c1 [Compound 259, 2-(2,5-bis(6-(3-(dimethylamino)propoxy)-1H-benzo[d]imidazol-2-yl)phenoxy)ethanol] | 7.2 |  | −12.7 |  | 
COCCOc1cc(-c2nc3ccc(OCCCN(C)C)cc3[nH]2)ccc1-c1nc2ccc(OCCCN(C)C)cc2[nH]1 [Compound 258, 3,3′-((2,2′-(2-(2-methoxyethoxy)-1,4-phenylene)bis(1H-benzo[d]imidazole-6,2-diyl))bis(oxy))bis(N,N-dimethylpropan-1-amine)] | 31 |  | 10.0 |  | 
CN(C)CCCNC(=O)c1ccc(-c2nc3cc(-c4ccc5[nH]c(-c6ccc(C(=O)NCCCN(C)C)cc6)nc5c4)ccc3[nH]2)cc1 [Compound 393] | 7.48 |  | 17.1 |  | 
CN(C)CCCCCOc1ccc(-c2nc3cc(-c4ccc5[nH]c(-c6ccc(OCCCCCN(C)C)cc6)nc5c4)ccc3[nH]2)cc1 [Compound 371] | 12.8 |  | 72.4 |  | 79.7
CN(C)CCc1cn(-c2ccc3nc(-c4ccc(-c5nc6ccc(-n7cc(CCN(C)C)nn7)cc6[nH]5)cc4)[nH]c3c2)nn1 [Compound 221] | 2.53 |  | −2.5 |  | 
CN(C)CCNS(=O)(=O)c1ccc2nc(-c3ccc(-c4nc5ccc(S(=O)(=O)NCCN(C)C)cc5[nH]4)cc3)[nH]c2c1 [Compound 275, 2,2′-(1,4-phenylene)bis(N-(2-(dimethylamino)ethyl)-1H-benzo[d]imidazole-6-sulfonamide)] | 24.3 |  | −6.5 |  | 
COc1cc(-c2nc3ccc(OCCCN(C)C)cc3[nH]2)c(O)cc1-c1nc2cc(OCCCN(C)C)ccc2[nH]1 [Compound 308] | 1.8 |  | −24.4 |  | 
c1cc2nc(-c3ccc(-c4nc5ccc(NC6=NCCN6C6=NCCN6)cc5[nH]4)cc3)[nH]c2cc1NC1=NCCN1C1=NCCN1 [Compound 77] |  |  | 4.2 | 10.8 | 
CN(C)CCCOc1ccc2nc(-c3ccc(-c4nc5ccc(OCCCN(C)C)cc5[nH]4)nc3)[nH]c2c1 [Compound 276, 3,3′-(2,2′-(pyridine-2,5-diyl)bis(3H-benzo[d]imidazole-5,2-diyl))bis(oxy)bis(N,N-dimethylpropan-1-amine)] | 9.7 |  | 63.1 |  | 
COc1cc(-c2nc3ccc(C(=O)NCCN(C)C)cc3[nH]2)c(OC)cc1-c1nc2cc(OCCCN(C)C)ccc2[nH]1 [Compound 298] | 23.5 |  | −41.8 |  | 
COc1cc(-c2nc3ccc(C(=O)OCCN(C)C)cc3[nH]2)c(OC)cc1-c1nc2ccc(C(=O)OCCN(C)C)cc2[nH]1 [Compound 269, bis(2-(dimethylamino)ethyl) 2,2′-(2,5-dimethoxy-1,4-phenylene)bis(1H-benzo[d]imidazole-6-carboxylate)] | 3.11 |  | 55.6 |  | 
O=C(NCCN1CCN(CCNC(=O)c2ccc3nc(-c4ccc(-c5nc6ccc(C(=O)NCCN7CCCCC7)cc6[nH]5)cc4)[nH]c3c2)CC1)NCCN1CCN(CCNC(=O)c2ccc3nc(-c4ccc(-c5nc6ccc(C(=O)NCCN7CCCCC7)cc6[nH]5)cc4)[nH]c3c2)CC1 [Compound 406, N,N′-((((carbonylbis(azanediyl))bis(ethane-2,1-diyl))bis(piperazine-4,1-diyl))bis(ethane-2,1-diyl))bis(2-(4-(6-((2-(piperidin-1-yl)ethyl)carbamoyl)-1H-benzo[d]imidazol-2-yl)phenyl)-1H-benzo[d]imidazole-6-carboxamide)] | 3.03 |  | 54.3 |  | 9.4
CN1CCC[C@H]1COc1ccc(-c2nc3cc(-c4ccc5[nH]c(-c6ccc(OC[C@@H]7CCCN7C)cc6)nc5c4)ccc3[nH]2)cc1 [Compound 356] | 30.4 |  | 59.2 |  | 43.7
COc1cc(-c2nc3ccc(SCCCN(C)C)cc3[nH]2)c(OC)cc1-c1nc2cc(SCCCN(C)C)ccc2[nH]1 [Compound 302, 3-((2-(4-(6-((3-(dimethylamino)propyl)thio)-1H-benzo[d]imidazol-2-yl)-2,5-dimethoxyphenyl)-1H-benzo[d]imidazol-5-yl)thio)-N,N-dimethylpropan-1-amine] | 28 |  | 32.3 |  | 
CN1CCCCC1COc1ccc(-c2nc3cc(-c4ccc5[nH]c(-c6ccc(O)cc6)nc5c4)ccc3[nH]2)cc1 (stereo not drawn) [Compound 358] | 19.2 |  | 74.6 |  | 12.4
c1cc(-c2nc3cc(-c4ccc5[nH]c(-c6ccc(OCCN7CCCCC7)cc6)nc5c4)ccc3[nH]2)ccc1OCCN1CCCCC1 [Compound 350] | 16.9 |  |  |  | 47.2
